Measurements reported in ChEMBL document CHEMBL6092203, “Discovery of Novel PROTAC-Based HPK1 Degraders with High Potency and Selectivity for Cancer Immunotherapy” (J Med Chem, 2024).
The source made the active and inactive calls. No cut-off for these calls is given here.

Legend:
[1] = target: Protein cereblon/Mitogen-activated protein kinase kinase kinase kinase 1 (Homo sapiens, UniProt Q92918+Q96SW2); assay: PROTAC activity at CRBN/HPK1 in human Jurkat cells assessed as HPK1 degradation at 0.01 uM measured after 24 hrs by Western blotting analysis; assay type: cell-based
Chain of Protein cereblon/Mitogen-activated protein kinase kinase kinase kinase 1 (Q92918 whole entry, looked up): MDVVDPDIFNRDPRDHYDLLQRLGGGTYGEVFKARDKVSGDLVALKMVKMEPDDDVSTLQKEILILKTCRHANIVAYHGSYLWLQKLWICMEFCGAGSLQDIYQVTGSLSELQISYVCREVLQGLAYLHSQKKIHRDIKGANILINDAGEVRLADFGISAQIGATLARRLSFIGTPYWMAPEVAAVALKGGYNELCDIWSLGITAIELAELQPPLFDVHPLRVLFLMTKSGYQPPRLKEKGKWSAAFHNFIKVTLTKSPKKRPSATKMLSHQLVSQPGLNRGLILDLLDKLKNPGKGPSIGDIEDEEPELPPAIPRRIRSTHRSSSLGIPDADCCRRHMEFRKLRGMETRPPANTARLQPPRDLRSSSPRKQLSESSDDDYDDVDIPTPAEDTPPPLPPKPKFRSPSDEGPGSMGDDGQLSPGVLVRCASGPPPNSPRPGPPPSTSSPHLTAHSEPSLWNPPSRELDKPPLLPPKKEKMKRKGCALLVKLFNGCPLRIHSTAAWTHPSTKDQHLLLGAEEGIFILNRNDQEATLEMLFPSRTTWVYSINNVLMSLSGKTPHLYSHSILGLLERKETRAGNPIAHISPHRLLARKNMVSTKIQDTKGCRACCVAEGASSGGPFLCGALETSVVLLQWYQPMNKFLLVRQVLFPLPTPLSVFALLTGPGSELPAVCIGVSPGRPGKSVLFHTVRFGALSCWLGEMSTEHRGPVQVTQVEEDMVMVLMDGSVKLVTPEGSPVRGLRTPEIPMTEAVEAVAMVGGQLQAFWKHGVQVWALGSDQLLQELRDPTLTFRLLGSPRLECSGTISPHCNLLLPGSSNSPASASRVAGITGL
Chain of Protein cereblon/Mitogen-activated protein kinase kinase kinase kinase 1 (Q96SW2 whole entry, looked up): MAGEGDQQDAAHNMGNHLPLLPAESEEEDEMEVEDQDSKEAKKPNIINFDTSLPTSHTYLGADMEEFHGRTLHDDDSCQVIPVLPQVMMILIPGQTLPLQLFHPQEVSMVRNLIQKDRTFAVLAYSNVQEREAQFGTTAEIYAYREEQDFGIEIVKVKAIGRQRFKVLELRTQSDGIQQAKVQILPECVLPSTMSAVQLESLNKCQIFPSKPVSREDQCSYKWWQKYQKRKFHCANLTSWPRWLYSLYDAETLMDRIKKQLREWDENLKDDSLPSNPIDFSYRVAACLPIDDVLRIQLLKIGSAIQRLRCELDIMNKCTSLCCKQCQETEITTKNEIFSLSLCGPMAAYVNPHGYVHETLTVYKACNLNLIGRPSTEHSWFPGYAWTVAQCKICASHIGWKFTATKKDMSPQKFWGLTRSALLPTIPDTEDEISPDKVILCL

in vitro [2] = details: rhesus monkey, liver microsomes
Cytochrome P450 3A4 = Cytochrome P450 3A4 (Homo sapiens, UniProt P08684); assay: Inhibition of CYP3A4 in human liver microsomes using midazolam as substrate in presence of NADPH; assay type: ADME, Microsome
Chain of Cytochrome P450 3A4 (P08684 whole entry): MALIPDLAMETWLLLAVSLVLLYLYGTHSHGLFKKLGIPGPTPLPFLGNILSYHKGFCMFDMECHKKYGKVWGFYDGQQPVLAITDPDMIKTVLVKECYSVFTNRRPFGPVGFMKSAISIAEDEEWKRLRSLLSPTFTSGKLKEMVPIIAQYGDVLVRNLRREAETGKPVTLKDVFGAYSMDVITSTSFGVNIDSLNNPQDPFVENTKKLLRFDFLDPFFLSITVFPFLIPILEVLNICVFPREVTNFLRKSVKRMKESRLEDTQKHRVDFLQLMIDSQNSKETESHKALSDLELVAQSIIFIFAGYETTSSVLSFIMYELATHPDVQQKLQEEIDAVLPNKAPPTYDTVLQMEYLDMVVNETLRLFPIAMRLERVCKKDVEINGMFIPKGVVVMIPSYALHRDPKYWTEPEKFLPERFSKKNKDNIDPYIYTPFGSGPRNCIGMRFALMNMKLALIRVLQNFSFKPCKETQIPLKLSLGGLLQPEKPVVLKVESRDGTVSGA

Cytochrome P450 2C8 = target: T1, Cytochrome P450 2C8 (Homo sapiens, UniProt P10632); assay: Inhibition of CYP2C8 in human liver microsomes using amodiaquine as substrate in presence of NADPH; assay type: ADME, Microsome
T1 sequence (P10632 whole entry): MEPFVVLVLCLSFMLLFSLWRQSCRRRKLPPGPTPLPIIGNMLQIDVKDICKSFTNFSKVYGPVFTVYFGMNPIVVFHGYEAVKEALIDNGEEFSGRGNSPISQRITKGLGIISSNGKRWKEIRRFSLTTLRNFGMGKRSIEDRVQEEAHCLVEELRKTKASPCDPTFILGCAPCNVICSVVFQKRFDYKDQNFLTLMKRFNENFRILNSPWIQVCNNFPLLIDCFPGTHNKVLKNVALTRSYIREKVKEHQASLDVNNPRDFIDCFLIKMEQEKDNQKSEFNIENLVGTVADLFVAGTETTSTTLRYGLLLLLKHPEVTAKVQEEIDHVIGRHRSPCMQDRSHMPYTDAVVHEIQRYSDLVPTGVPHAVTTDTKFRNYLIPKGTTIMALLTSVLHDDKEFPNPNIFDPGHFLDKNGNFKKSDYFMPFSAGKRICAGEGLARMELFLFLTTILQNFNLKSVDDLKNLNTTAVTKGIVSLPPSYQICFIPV

in vivo [3] = details: male, Sprague-Dawley, rat, po, 2 mg/kg
[4] = Drug metabolism in dog hepatocytes assessed as phase 2 metabolites formation at 10 uM incubated for 120 mins by UHPLC-UV/MS/MS method; assay type: ADME, cell-based, Canis lupus familiaris, Hepatocyte; details: 2 h
MC-38 [5] = assay: Antitumor activity against mouse MC38 cells implanted in C57BL/6J mouse assessed as reduction in tumor weight at 0.1 mg/kg, po BID administered for 3 to 4 weeks (reference value: 1.79 +/- 0.24 g); assay type: functional; details: time 3-4 weeks
in vivo [6] = details: female, Sprague-Dawley, rat, po, 2 mg/kg
[7] = Toxicity in Sprague-Dawley rat assessed as no observable adverse effect level measured after 14 days; details: in vivo, time 14 day
in vivo [8] = details: C57BL/6J, mouse, po, 10 mg/kg
Cytochrome P450 1A2 = target: T2, Cytochrome P450 1A2 (Homo sapiens, UniProt P05177); assay: Inhibition of CYP1A2 in human liver microsomes using phenacetin as substrate in presence of NADPH; assay type: ADME, Microsome
T2 sequence (P05177 whole entry): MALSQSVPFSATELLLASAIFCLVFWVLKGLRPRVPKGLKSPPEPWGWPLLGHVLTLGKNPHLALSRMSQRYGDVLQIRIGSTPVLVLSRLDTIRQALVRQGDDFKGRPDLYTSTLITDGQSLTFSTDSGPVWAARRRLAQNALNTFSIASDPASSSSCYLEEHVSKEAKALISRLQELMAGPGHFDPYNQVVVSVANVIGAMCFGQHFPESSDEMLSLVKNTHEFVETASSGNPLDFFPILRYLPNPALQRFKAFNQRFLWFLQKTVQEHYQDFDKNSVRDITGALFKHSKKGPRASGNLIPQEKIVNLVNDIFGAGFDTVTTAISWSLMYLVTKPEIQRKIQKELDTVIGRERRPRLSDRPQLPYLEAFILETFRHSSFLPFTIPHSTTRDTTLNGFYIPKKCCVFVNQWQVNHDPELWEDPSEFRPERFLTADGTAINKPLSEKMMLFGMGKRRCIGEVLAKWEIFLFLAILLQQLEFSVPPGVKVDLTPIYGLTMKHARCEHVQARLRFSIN

MC-38 [9] = assay: Antitumor activity against mouse MC38 cells implanted in C57BL/6J mouse assessed as tumor growth inhibition at 0.5 mg/kg, IG BID administered for 3 to 4 weeks; assay type: functional, organism-based; details: time 3-4 weeks
MC-38 [10] = assay: Antitumor activity against mouse MC38 cells implanted in C57BL/6J mouse assessed as tumor weight inhibition rate at 0.1 mg/kg, po BID measured after 4 weeks; assay type: functional; parameters: scale not given: the % may be the effect or the level left
MC-38 [11] = assay: Antitumor activity against mouse MC38 cells implanted in C57BL/6J mouse assessed as reduction in tumor volume at 1 mg/kg, po BID administered for 3 to 4 weeks (reference value: 1549.22 +/- 217.92 mm3); assay type: functional; details: time 3-4 weeks
in vivo [12] = details: beagle, dog, po, 5 mg/kg
Description: Oral bioavailability in Beagle dog at 5 mg/kg measured upto 24 hrs by LC-MS analysis

in vitro [13] = details: mouse, liver microsomes
[14] = Drug distribution in rat heart measured after 0.5 to 6 hrs; assay type: ADME, tissue-based; details: in vivo, time 0.5-6 hrs
in vivo [15] = details: male, Sprague-Dawley, rat, po, 2 mg/kg; remark: listed apart in the source
in vivo [16] = details: female, Sprague-Dawley, rat, po, 2 mg/kg; remark: listed apart in the source
[17] = Toxicity in Sprague-Dawley rat assessed as no observable adverse effect level exposure measured after 14 days; details: in vivo, 336 h, time 14 day
MC-38 [18] = assay: Synergistic antitumor activity against mouse MC38 cells implanted in C57BL/6J mouse assessed as reduction in tumor weight at 0.1 mg/kg, po bid administered for 3 to 4 weeks in presence of 5 mg/kg anti-PD1 and measured twice a week (reference value: 1.79 +/- 0.24 g); assay type: functional; details: time 3-4 weeks
[19] = Metabolic stability in dog hepatocytes assessed as intrinsic clearance at 1 uM incubated for 90 mins by LC-MS/MS method; assay type: ADME, cell-based, Canis lupus familiaris, Hepatocyte; details: 1.5 h
[20] = Metabolic stability in human liver microsomes assessed as intrinsic clearance at 1 uM incubated for 45 mins by LC-MS/MS method; assay type: ADME, Microsome; details: read-out: CLH
[21] = Toxicity in Sprague-Dawley rat assessed as efficacy dose exposure measured after 14 days; details: in vivo
[22] = Toxicity in C57BL/6J mouse assessed as body weight loss at 0.1 to 0.5 mg/kg, po bid administered for 3 to 4 weeks; assay type: organism-based; details: in vivo, dose lower 0.1 mg/kg, time lower 3 weeks, dose upper 0.5 mg/kg, time upper 4 weeks
[23] = Drug metabolism in monkey hepatocytes assessed as phase 2 metabolites formation at 10 uM incubated for 120 mins by UHPLC-UV/MS/MS method; assay type: ADME, cell-based, Macaca mulatta, Hepatocyte; details: rhesus monkey, 2 h
[24] = AUC(0 to 24 hrs) in female Sprague-Dawley rat at 100 mg/kg/day, po measured at day 1; assay type: ADME, organism-based; details: in vivo, time 1 day
[25] = Drug absorption in rat at 10 to 100 mg/kg, po; assay type: ADME, organism-based; details: in vivo, dose 10-100 mg/kg
[26] = Metabolic stability in rat liver microsomes assessed as intrinsic clearance at 1 uM incubated for 45 mins by LC-MS/MS method; assay type: ADME, Microsome; details: read-out: CLH

SMILES: O=C1CCN(c2cc(C(=O)N3CCC(CC4CCN(c5ccc(-c6cnc7[nH]cc(-c8cnn(CC(F)(F)F)c8)c7n6)cn5)CC4)CC3)ccc2Cl)C(=O)N1
- Activity [1]: Active
- half-life at 0.75 h, 1 µM (in vitro [2]): 0.607 h
- IC50 (Cytochrome P450 3A4): > 10 µM
- IC50 (Cytochrome P450 2C8): > 10 µM
- Cmax at 24 h (in vivo [3]): 84 ng/mL
- Drug metabolism [4]: metabolite_detected
- Activity (MC-38 [5]): 1.4 g
- Cmax at 24 h (in vivo [6]): 63.9 ng/mL
- NOAEL at 336 h [7]: 100 mg/kg/day
- bioavailability at 24 h (in vivo [8]): 43.7%
- IC50 (Cytochrome P450 1A2): > 10 µM
- Activity (MC-38 [9]): Active; Comparable To 100 Mg/Kg Dd203-1 Treatement Group
- Activity (MC-38 [10]): 21.84%
- Activity (MC-38 [11]): 1277.79 mm3
- bioavailability at 24 h (in vivo [12]): 16%
- half-life at 0.75 h, 1 µM (in vitro [13]): 1.73 h
- Drug uptake [14]: Active
- AUC at 336 h (in vivo [15]): 830 ng·h/mL
- Cmax at 336 h (in vivo [16]): 140 ng/mL
- NOAEL [17]: 136000 ng·h/mL
- Activity (MC-38 [18]): 1.17 g
- CLH [19]: 3.33 µL/min/mg
- microsomal CLint at 1 µM [20]: 3.48 µL/min/mg
- AUC at 336 h [21]: 291 ng·h/mL
- Activity [22]: Non-toxic
- Drug metabolism [23]: metabolite_detected
- AUC(0-t) at 24 h [24]: 110000 ng·h/mL
- Drug absorption [25]: Active
- microsomal CLint at 1 µM [26]: 5.62 µL/min/mg
